# Source: ChEMBL document CHEMBL1201862, “PubChem BioAssay data set” (2004)
#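 Growth conditions: 96-well plates. Treatment: test compound, 48 hours, 5 concentrations. Analysis: linear interpolation between bracketing concentrations; unreached endpoints set to highest concentration. GI50 marks 50% less growth.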 The source made the active and inactive calls. No stated cut-off is given here; in the data, active = GI50 up to about 1.1 µM and inactive = higher.
# How the values were obtained:
# Test in all cases: growth of human tumour cells (NCI), 48 h
# [1] = tested on: 786-0
# [2] = tested on: A498
# [3] = tested on: A549
# [4] = tested on: ACHN
# [5] = tested on: CAKI-1
# [6] = tested on: CCRF-CEM
# [7] = tested on: COLO 205
# [8] = tested on: DLD-1
# [9] = tested on: DMS-114
# [10] = tested on: DMS-273
# [11] = tested on: EKVX
# [12] = tested on: HCC 2998
# [13] = tested on: HCT-116
# [14] = tested on: HCT-15
# [15] = tested on: HL-60
# [16] = tested on: HOP-18
# [17] = tested on: HOP-62
# [18] = tested on: HOP-92
# [19] = tested on: HT-29
# [20] = tested on: IGROV-1
# [21] = tested on: K562
# [22] = tested on: KM-20L2
# [23] = tested on: KM12
# [24] = tested on: LOX IMVI
# [25] = tested on: LXFL 529
# [26] = tested on: M14
# [27] = tested on: M19-MEL
# [28] = tested on: MOLT-4
# [29] = tested on: Malme-3M
# [30] = tested on: NCI-H226
# [31] = tested on: NCI-H23
# [32] = tested on: NCI-H460
# [33] = tested on: NCI-H522
# [34] = tested on: OVCAR-3
# [35] = tested on: OVCAR-4
# [36] = tested on: OVCAR-5
# [37] = tested on: OVCAR-8
# [38] = tested on: RPMI-8226
# [39] = tested on: RXF 393
# [40] = tested on: RXF 631
# [41] = tested on: SF-268
# [42] = tested on: SF-295
# [43] = tested on: SF-539
# [44] = tested on: SK-MEL-28
# [45] = tested on: SK-MEL-2
# [46] = tested on: SK-MEL-5
# [47] = tested on: SK-OV-3
# [48] = tested on: SN12C
# [49] = tested on: SNB-19
# [50] = tested on: SNB-75
# [51] = tested on: SNB-78
# [52] = tested on: SR
# [53] = tested on: SW-620
# [54] = tested on: TK-10
# [55] = tested on: U-251
# [56] = tested on: UACC-257
# [57] = tested on: UACC-62
# [58] = tested on: UO-31
# [59] = tested on: XF498
compound,measurement,setting,value
CC(C)C(=O)Nc1nc2[nH]cnc2c(=O)[nH]1,GI50,[1],> 100 µM (inactive)
same,GI50,[2],> 100 µM (inactive)
same,GI50,[3],> 100 µM (inactive)
same,GI50,[4],> 100 µM (inactive)
same,GI50,[5],> 100 µM (inactive)
same,GI50,[6],> 100 µM (inactive)
same,GI50,[7],> 100 µM (inactive)
same,GI50,[8],> 100 µM (inactive)
same,GI50,[9],> 100 µM (inactive)
same,GI50,[10],> 100 µM (inactive)
same,GI50,[11],> 100 µM (inactive)
same,GI50,[12],> 100 µM (inactive)
same,GI50,[13],> 100 µM (inactive)
same,GI50,[14],> 100 µM
same,GI50,[15],> 100 µM (inactive)
same,GI50,[16],> 100 µM (inactive)
same,GI50,[17],> 100 µM (inactive)
same,GI50,[18],> 100 µM (inactive)
same,GI50,[19],> 100 µM (inactive)
same,GI50,[20],> 100 µM (inactive)
same,GI50,[21],> 100 µM (inactive)
same,GI50,[22],> 100 µM (inactive)
same,GI50,[23],> 100 µM (inactive)
same,GI50,[24],> 100 µM (inactive)
same,GI50,[25],> 100 µM (inactive)
same,GI50,[26],> 100 µM (inactive)
same,GI50,[27],> 100 µM (inactive)
same,GI50,[28],> 100 µM (inactive)
same,GI50,[29],> 100 µM (inactive)
same,GI50,[30],> 100 µM (inactive)
same,GI50,[31],> 100 µM (inactive)
same,GI50,[32],> 100 µM (inactive)
same,GI50,[33],> 100 µM (inactive)
same,GI50,[34],> 100 µM (inactive)
same,GI50,[35],> 100 µM (inactive)
same,GI50,[36],> 100 µM (inactive)
same,GI50,[37],> 100 µM (inactive)
same,GI50,[38],> 100 µM (inactive)
same,GI50,[39],> 100 µM (inactive)
same,GI50,[40],> 100 µM (inactive)
same,GI50,[41],> 100 µM (inactive)
same,GI50,[42],> 100 µM (inactive)
same,GI50,[43],> 100 µM (inactive)
same,GI50,[44],> 100 µM (inactive)
same,GI50,[45],> 100 µM (inactive)
same,GI50,[46],> 100 µM (inactive)
same,GI50,[47],> 100 µM (inactive)
same,GI50,[48],> 100 µM (inactive)
same,GI50,[49],> 100 µM (inactive)
same,GI50,[50],> 100 µM (inactive)
same,GI50,[51],> 100 µM (inactive)
same,GI50,[52],> 100 µM (inactive)
same,GI50,[53],> 100 µM (inactive)
same,GI50,[54],> 100 µM (inactive)
same,GI50,[55],> 100 µM (inactive)
same,GI50,[56],> 100 µM (inactive)
same,GI50,[57],> 100 µM (inactive)
same,GI50,[58],> 100 µM (inactive)
same,GI50,[59],> 100 µM (inactive)
CC1(C)CC(N(C(=O)/C=C/c2ccc([N+](=O)[O-])o2)C2CCCCC2)CC(C)(C)N1,GI50,[1],6.82 µM (inactive)
same,GI50,[2],16.2 µM (inactive)
same,GI50,[3],15 µM (inactive)
same,GI50,[4],12.8 µM (inactive)
same,GI50,[5],5.52 µM (inactive)
same,GI50,[6],3.25 µM (inactive)
same,GI50,[8],1.73 µM (inactive)
same,GI50,[9],2.55 µM (inactive)
same,GI50,[10],5.52 µM (inactive)
same,GI50,[11],13.9 µM (inactive)
same,GI50,[12],11.3 µM (inactive)
same,GI50,[13],3.18 µM (inactive)
same,GI50,[14],7.45 µM
same,GI50,[15],2.21 µM (inactive)
same,GI50,[16],22.8 µM (inactive)
same,GI50,[17],20 µM (inactive)
same,GI50,[18],3.65 µM (inactive)
same,GI50,[19],4.49 µM (inactive)
same,GI50,[20],14.3 µM (inactive)
same,GI50,[22],5.38 µM (inactive)
same,GI50,[23],10.3 µM (inactive)
same,GI50,[24],12 µM (inactive)
same,GI50,[25],5.36 µM (inactive)
same,GI50,[26],2.82 µM (inactive)
same,GI50,[27],5.11 µM (inactive)
same,GI50,[28],3.96 µM (inactive)
same,GI50,[31],9.46 µM (inactive)
same,GI50,[32],3.71 µM (inactive)
same,GI50,[33],7.91 µM (inactive)
same,GI50,[34],12.3 µM (inactive)
same,GI50,[35],10.4 µM (inactive)
same,GI50,[36],23.6 µM (inactive)
same,GI50,[37],5.2 µM (inactive)
same,GI50,[38],3.29 µM (inactive)
same,GI50,[40],10.6 µM (inactive)
same,GI50,[41],7.62 µM (inactive)
same,GI50,[42],13.5 µM (inactive)
same,GI50,[43],9.86 µM (inactive)
same,GI50,[44],12.5 µM (inactive)
same,GI50,[46],10.2 µM (inactive)
same,GI50,[47],28.6 µM (inactive)
same,GI50,[48],6.22 µM (inactive)
same,GI50,[49],13.1 µM (inactive)
same,GI50,[50],10.5 µM (inactive)
same,GI50,[51],10.5 µM (inactive)
same,GI50,[52],5.89 µM (inactive)
same,GI50,[53],2.55 µM (inactive)
same,GI50,[54],21.3 µM (inactive)
same,GI50,[55],5.35 µM (inactive)
same,GI50,[56],11.1 µM (inactive)
same,GI50,[57],10 µM (inactive)
same,GI50,[58],12.2 µM (inactive)
same,GI50,[59],11.4 µM (inactive)
